Assay results as given in patent publication US7612079B2, “2,6,9-substituted purine derivatives and their use in the treatment of proliferative disorders” (Cyclacel Limited, priority 2001, dated 2009).

Experiments:
[1] = target: T1, cyclic AMP-dependent kinase (PKA) catalytic subunit (Homo sapiens, UniProt P17612); test: PKA kinase assay (Kemptide phosphorylation); assay type: biochemical; conditions: Table 2; read-out: Kinase inhibition PKA IC50
T1 construct: purchased Calbiochem 539487
Procedure: The reaction mixture (total volume 50 μl) consisted of 20 mM MOPS, pH 7.2, 25 mM β-glycerophosphate, 5 mM EGTA, 1 mM DTT, 1 mM Na3VO4, 10 mM MgCl2, 100 μM ATP, 0.2 μCi [γ-^32P]-ATP.

mouse ERK-2 = target: T2, mouse ERK-2 (Mus musculus, UniProt P63085); test: ERK-2 kinase assay (MBP phosphorylation); assay type: biochemical; conditions: Table 2; read-out: Kinase inhibition ERK2 IC50
T2 construct: purchased Upstate Biotechnologies
T2 sequence (P63085 whole entry): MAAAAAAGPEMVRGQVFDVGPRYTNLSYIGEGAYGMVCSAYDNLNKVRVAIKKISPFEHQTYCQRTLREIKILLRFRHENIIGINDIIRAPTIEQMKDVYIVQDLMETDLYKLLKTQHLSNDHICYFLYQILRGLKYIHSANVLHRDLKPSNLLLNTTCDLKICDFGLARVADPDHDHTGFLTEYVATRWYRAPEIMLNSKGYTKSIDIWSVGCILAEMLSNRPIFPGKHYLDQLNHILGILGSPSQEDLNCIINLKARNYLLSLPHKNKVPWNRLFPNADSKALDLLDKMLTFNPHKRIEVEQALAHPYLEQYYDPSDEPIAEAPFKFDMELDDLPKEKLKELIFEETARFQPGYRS
Procedure: ERK-2 kinase activity was measured by the incorporation of radioactive phosphate into myelin basic protein (MBP), catalysed by purified mouse ERK-2 (Upstate Biotechnologies). The reaction mixture (total volume 50 μL) consisted of 20 mM MOPS, pH 7.0,25 mM β-glycerophosphate, 5 mM EGTA, 1 mM DTT, 1 mM Na3VO4, 10 mM MgCl2, 100 μM ATP, 0.2 μCi [γ-^32P]-ATP.

A2780 = test: 72-h MTT proliferation assay, A2780; assay type: cell-based; conditions: Homo sapiens, read-out: IC50 Cell line A2780
Source text: (§1) Selected compounds from the above examples were subjected to a standard cellular proliferation assay using seven different human tumour cell lines: A2780, A278CisF, CH1, CH1DoxR, HCT116, HT29 and KM12. […] Human tumour cell lines were obtained from the ATCC (American Type Culture Collection, 10801 University Boulevard, Manessas, Va. 20110-2209, USA). The results are shown in Table 1, together with the average IC50 over the seven different cell lines.

A2780 CisR = test: 72-h MTT proliferation assay, A2780 CisR; assay type: cell-based; conditions: Homo sapiens, A2780cisR, read-out: IC50 Cell line A2780 CisR
Source text: as §1

CH1 = test: 72-h MTT proliferation assay, CH1; assay type: cell-based; conditions: Homo sapiens, read-out: IC50 Cell line CH1
Source text: as §1

CH1DoxR = test: 72-h MTT proliferation assay, CH1DoxR; assay type: cell-based; conditions: Homo sapiens, read-out: IC50 Cell line CH1DoxR
Source text: as §1

HCT116 = test: 72-h MTT proliferation assay, HCT116; assay type: cell-based; conditions: Homo sapiens, HCT-116, read-out: IC50 Cell line HCT116
Source text: as §1

HT29 = test: 72-h MTT proliferation assay, HT29; assay type: cell-based; conditions: Homo sapiens, HT-29, read-out: IC50 Cell line HT29
Source text: as §1

KM12 = test: 72-h MTT proliferation assay, KM12; assay type: cell-based; conditions: Homo sapiens, read-out: IC50 Cell line KM12
Source text: as §1

[2] = system: seven different human tumour cell lines: A2780, A278CisF, CH1, CH1DoxR, HCT116, HT29 and KM12; test: 72-h MTT proliferation assay, average over seven cell lines; assay type: cell-based; conditions: read-out: IC50 Cell line Average
Source text: Selected compounds from the above examples were subjected to a standard cellular proliferation assay using seven different human tumour cell lines: A2780, A278CisF, CH1, CH1DoxR, HCT116, HT29 and KM12.

A549, HT29, Saos-2 = test: In vitro anti-proliferative activity, 72-h MTT, A549, HT29, Saos-2; assay type: cell-based; conditions: read-out: In vitro anti-proliferative activity (72-h MTT IC50), Cell lines: A549, HT29, Saos-2
Aqueous solubility = assay type: physicochemical; conditions: remark in Table 1; versus Roscovitine
Source text: […]. […] […]

CDK4/cyclin D1 = CDK4/cyclin D1 (Homo sapiens, UniProt P11802); test: CDK4/cyclin D1 kinase assay (GST-Rb phosphorylation); assay type: biochemical; conditions: Table 2; read-out: Kinase inhibition CDK4/cyclin D1 IC50
CDK4/cyclin D1, sequence (P11802 whole entry, species assumed): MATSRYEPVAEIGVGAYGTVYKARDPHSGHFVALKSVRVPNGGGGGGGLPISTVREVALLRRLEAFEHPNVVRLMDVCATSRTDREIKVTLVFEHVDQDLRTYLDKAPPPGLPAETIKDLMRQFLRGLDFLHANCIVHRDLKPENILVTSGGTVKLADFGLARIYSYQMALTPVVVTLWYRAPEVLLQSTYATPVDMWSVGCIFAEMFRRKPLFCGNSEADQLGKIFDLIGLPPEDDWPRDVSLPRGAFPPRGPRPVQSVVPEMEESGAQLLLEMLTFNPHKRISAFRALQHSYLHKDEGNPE
CDK4/cyclin D1, sequence (P24385 whole entry partner, species assumed): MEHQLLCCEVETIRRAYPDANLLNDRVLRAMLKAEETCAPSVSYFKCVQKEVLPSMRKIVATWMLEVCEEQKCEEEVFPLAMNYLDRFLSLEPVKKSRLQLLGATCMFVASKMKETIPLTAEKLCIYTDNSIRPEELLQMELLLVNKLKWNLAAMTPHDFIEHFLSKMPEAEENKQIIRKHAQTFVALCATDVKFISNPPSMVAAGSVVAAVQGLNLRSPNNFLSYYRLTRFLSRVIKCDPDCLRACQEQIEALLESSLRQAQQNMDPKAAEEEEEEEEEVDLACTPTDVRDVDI
Procedure: Assays for CDK2/cyclin E kinase, CDK1/cyclin B and CDK4/cyclin D1 may be carried out by monitoring phosphorylation of GST-Rb in an appropriate system. […] The phosphorylation reaction mixture (total volume 40 μl) consisted of 50 mM HEPES pH 7.4, 20 mM MgCl2, 5 mM EGTA, 2 mM DTT, 20 mM β-glycerophosphate, 2 mM NaF, 1 mM Na3VO4, Protease Inhibitors Cocktail (Sigma, see above), BSA 0.5 mg/ml, 1 μg purified enzyme complex, 10 μl of GST-Rb-Sepharose-beads, 100 μM ATP, 0.2 μCi ^32P-ATP. The reaction is carried out for 30 min at 30° C. at constant shaking. At the end of this period 100 μl of 50 mM HEPES, pH 7.4 and 1 mM ATP is added to each well and the total volume transferred onto GFC filtered plate. The plate is washed 5 times with 200 μl of 50 mM HEPES, pH 7.4 and 1 mM ATP. To each well was added 50 μl scintillant liquid and the radioactivity of the samples is measured on Scintilation counter (Topcount, HP). The IC50 values of different peptides were calculated using GraFit software.

CDK7/cyclin H = CDK7/cyclin H (Homo sapiens, UniProt P50613); test: CDK7/cyclin H kinase inhibition; assay type: biochemical; conditions: Table 2
CDK7/cyclin H, sequence (P50613 whole entry, species assumed): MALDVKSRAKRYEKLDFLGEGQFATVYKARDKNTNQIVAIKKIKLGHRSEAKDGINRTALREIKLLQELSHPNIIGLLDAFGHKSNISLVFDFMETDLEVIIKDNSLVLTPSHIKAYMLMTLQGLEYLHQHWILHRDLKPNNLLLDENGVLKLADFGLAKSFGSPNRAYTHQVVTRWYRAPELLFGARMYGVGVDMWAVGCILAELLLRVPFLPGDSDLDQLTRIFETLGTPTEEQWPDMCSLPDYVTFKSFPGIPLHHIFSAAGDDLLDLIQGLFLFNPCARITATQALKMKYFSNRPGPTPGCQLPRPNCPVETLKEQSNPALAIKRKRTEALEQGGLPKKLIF
CDK7/cyclin H, sequence (P51946 whole entry partner, species assumed): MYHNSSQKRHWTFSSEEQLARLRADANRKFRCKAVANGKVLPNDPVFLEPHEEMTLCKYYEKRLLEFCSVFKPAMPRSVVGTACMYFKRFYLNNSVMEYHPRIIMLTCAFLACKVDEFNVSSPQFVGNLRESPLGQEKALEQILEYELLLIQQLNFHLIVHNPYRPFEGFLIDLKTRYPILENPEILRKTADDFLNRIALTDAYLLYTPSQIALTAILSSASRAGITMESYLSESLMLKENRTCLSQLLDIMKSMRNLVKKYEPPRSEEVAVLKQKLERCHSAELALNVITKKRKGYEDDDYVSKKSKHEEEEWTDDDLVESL

[3] = Pharmacokinetic analysis in mice

IC50 [1] | IC50 (mouse ERK-2) | IC50 (A2780) | IC50 (A2780 CisR) | IC50 (HCT116) | IC50 (HT29) | IC50 [2] | IC50 (A549, HT29, Saos-2) | PK remark: aqueous solubility (Aqueous solubility) | melting point | IC50 (CDK4/cyclin D1) | IC50 (CDK7/cyclin H) | SMILES | IC50 (CH1) | IC50 (CH1DoxR) | IC50 (KM12) | AUC ([3]; mice, comparative value) | half-life ([3]; mouse, in vivo)
> 50 µM | 9.5 µM | 22 µM | 28 µM | 26 µM | 54 µM | 31 µM | 4.5 µM | Improved aqueous solubility | 30 to 35 °C | – | – | CC[C@H](CO)Nc1nc(NCc2ccccn2)c2ncn(C(C)C)c2n1 [Example 5, (R)-2-{9-Isopropyl-6-[(pyridin-2:ylmethyl)-amino]-9H-purin-2:ylamino}-butan-1-ol] | 26 µM | 23 µM | 38 µM | – | –
> 50 µM | – | 23 µM | 22 µM | 10 µM | 23 µM | 17.3 µM | 17 µM | Improved aqueous solubility | 105 to 106 °C | 30 µM | 0.74 µM | CC[C@H](CO)Nc1nc(NCc2ccncc2)c2ncn(C(C)C)c2n1 [Example 6, (R)-2-{9-Isopropyl-6-[(pyridin-4-ylmethyl)-amino]-9H-purin-2-ylamino}-butan-1-ol] | 8.2 µM | 28 µM | 7 µM | – | –
– | – | – | – | – | – | – | – | – | – | – | – | CC[C@H](CO)Nc1nc(NCc2ccccc2)c2ncn(C(C)C)c2n1 [Roscovitine] | – | – | – | 75454 nh-h/mL | 2.7 h
